{
  "source": "patent US20260137820A1",
  "about": "“TRIFUNCTIONAL COMPOUND AND USE THEREOF” (PEKING UNIVERSITY, priority 2022, published 2026)",
  "key": {"Human FAP Protein": {"target": "T1, Human FAP Protein (Homo sapiens, UniProt Q12884)", "T1 construct": "His; purchased Novoprotein (China)", "T1 sequence (Q12884 1-760)": "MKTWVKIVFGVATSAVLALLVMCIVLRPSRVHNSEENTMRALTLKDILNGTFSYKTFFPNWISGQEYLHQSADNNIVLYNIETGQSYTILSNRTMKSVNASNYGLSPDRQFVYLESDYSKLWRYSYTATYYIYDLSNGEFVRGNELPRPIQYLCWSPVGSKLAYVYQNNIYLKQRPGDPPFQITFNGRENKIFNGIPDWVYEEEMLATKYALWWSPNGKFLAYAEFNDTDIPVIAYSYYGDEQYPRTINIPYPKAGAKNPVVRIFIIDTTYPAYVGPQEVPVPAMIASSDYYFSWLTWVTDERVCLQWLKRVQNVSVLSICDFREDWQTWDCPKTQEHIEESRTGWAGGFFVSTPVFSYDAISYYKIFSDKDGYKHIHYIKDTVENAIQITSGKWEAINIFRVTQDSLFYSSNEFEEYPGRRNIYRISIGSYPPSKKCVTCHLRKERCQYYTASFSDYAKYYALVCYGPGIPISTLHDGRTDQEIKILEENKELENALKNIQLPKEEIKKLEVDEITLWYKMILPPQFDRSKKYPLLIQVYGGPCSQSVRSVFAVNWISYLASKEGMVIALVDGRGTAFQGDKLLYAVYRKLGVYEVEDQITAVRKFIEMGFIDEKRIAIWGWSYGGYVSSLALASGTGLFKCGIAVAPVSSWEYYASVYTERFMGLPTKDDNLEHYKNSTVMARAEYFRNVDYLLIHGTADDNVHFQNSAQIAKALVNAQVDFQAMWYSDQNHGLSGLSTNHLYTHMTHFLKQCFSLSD", "experiment": "Surface plasmon resonance, multi-cycle mode", "format": "binding", "details": "SPR multi-cycle", "experimental": "According to US Pharmacopeia USP43 IMMUNOLOGICAL TEST METHODS-SURFACE PLASMON RESONANCE<1105> and Chinese Pharmacopoeia 2020, Volume IV, Surface plasmon resonance method, Label-free Immunochemistry (IV), 3429 Immunochemistry, General Rule, a surface plasmon resonance experiment was carried out.\nA surface plasma chromatograph from Cytiva was used for measurement. Before protein injection, 400 mM condensing agent 1-ethyl-(3-dimethylaminopropyl)carbodiimide hydrochloride and 100 mM N-hydroxysuccinimide were mixed, and a CM5 sensor chip was activated with this mixture for 420 seconds at a flow rate of 10 μL/min. 50 μg/mL protein was then injected into an Fc2 sample channel at a flow rate of 10 μL/min to achieve a protein immobilization level of about 8000-15000 RU. In the control group, no protein was injected. Subsequently, the unreacted chip was blocked with 1M ethanolamine hydrochloride-NaOH at a flow rate of 10 μL/min for 420 seconds.\nDifferent gradient solutions were injected into channels Fc1-Fc2 at a flow rate of 30 μL/min, followed by a 60-second binding phase and a 90-second dissociation phase, and data were collected."}, "FAP, DPP-4 and PREP": {"tested_on": "FAP, DPP-4 and PREP", "experiment": "Binding selectivity to homologous proteins (competitive inhibition of enzyme substrate, IC50)", "format": "biochemical", "details": "from IC50 values, pNA release", "experimental": "Taking FAP target as an example, homologous proteins thereof include, but are not limited to, DPP-4 and PREP. The structural similarity thereof may lead to a decreased binding selectivity of the modified precursor molecules for the homologous proteins, resulting in an increased uptake in non-target organs.\nThe binding selectivity for homologous proteins was determined by a competitive inhibition experiment on the substrate of the enzymes, and the binding/inhibition selectivity thereof is indirectly evaluated by the median inhibitory concentration (IC50) values obtained.\nBy reference to the method described in Extended Structure-Activity Relationship and Pharmacokinetic Investigation of (4-Quinolinoyl)glycyl-2-cyanopyrrolidine Inhibitors of Fibroblast Activation Protein (FAP). Journal of Medicinal Chemistry 57, 3053-3074 (2014), published by Jansen et al., the initial rate of p-nitroaniline (pNA) released from the substrate (absorption at 405 nm) was measured by using a microplate reader (PerkinElmer, Victor™ X5) at 37° C. in a final volume of 200 μL to determine the kinetic properties of the enzyme activity. […]\nThe determination method for IC50 on FAP is as follows: the substrate Z-Gly-Pro-p-nitroanilide (50 μM, Cat #G-58468, HEOWNS) was used to measure FAP activity at pH 7.4. […] The mixture was then incubated at 37° C. for 6 hours, and the release of pNA was then measured. […]"}},
  "data": [
    {"smiles": "N#C[C@@H]1CC(F)(F)CN1C(=O)CNC(=O)c1ccnc2ccc(OCCCN3CCN(C(=O)[C@H](CCCCNC(=O)c4ccc(OS(=O)(=O)F)cc4)NC(=O)CN4CCN(CC(=O)O)CCN(CC(=O)O)CCN(CC(=O)O)CC4)CC3)cc12", "note": "[FAPI-CB-01]", "values": [
      {"measurement": "affinity compared with FAPI-04", "setting": "Human FAP Protein", "value": "improved by approximately two orders of magnitude"},
      {"measurement": "binding rate compared with FAPI-04", "setting": "Human FAP Protein", "value": "significantly increased"},
      {"measurement": "dissociation rate compared with FAPI-04", "setting": "Human FAP Protein", "value": "decreased"},
      {"measurement": "Kd", "setting": "Human FAP Protein; 1:1 binding model", "value": 4.62, "unit": "pM"},
      {"measurement": "Rmax (maximum theoretical analyte binding capacity)", "setting": "Human FAP Protein; 1:1 binding model", "value": 29.3, "unit": "RU"},
      {"measurement": "kd", "setting": "Human FAP Protein; 1:1 binding model", "value": "4.79e-05", "unit": "s⁻¹"},
      {"measurement": "kon", "setting": "Human FAP Protein; 1:1 binding model, read-out: ka", "value": "1.04e+07", "unit": "M⁻¹ s⁻¹"},
      {"measurement": "selectivity to FAP protein over homologous proteins DPP-4 and PREP", "setting": "FAP, DPP-4 and PREP", "value": "high selectivity"}
    ]}
  ]
}
